In patent US11110102B2, “Antifungal agents used in combination” (Scynexis, Inc., priority 2017, dated 2021):
Several values for one entry are separate records, joined by “and”; a condition that tells them apart may be missing. Equal values may be shown once.

What was measured:
Test in all cases: Checkerboard combination MIC testing
Type in all cases: cell-based, Aspergillus fumigatus
A. fumigatus MRL #20438 = settings: A. fumigatus MRL 20438 (wild-type), read at 48 hours, duplicate
Excerpt: (§1) To determine the type of interaction between a representative compound of the enfumafungin derivatives (SCY-078) with several antifungal agents against Aspergillus fumigatus, the most frequent mold causing invasive disease in humans, the checkerboard method was used. The citrate salt of the compound was used in the studies.
(§2) The checkerboard method involves the determination of percent growth inhibition of fungal cells in the presence of different combinations of drugs. Percent growth inhibition is calculated relative to growth in control wells which contain only cells and no drug. The assay was performed in 96-well microplates in which each row and each column contained twofold serial dilutions of drug A and drug B at concentrations ranging from 0 to slightly higher than their minimum inhibitory concentration (MIC). […] Then the inoculum was added to each well and the growth was evaluated after 48 hrs incubation to determine the first well in which growth was inhibited. The checkerboard-based determination of MICs of antifungal agents in combination was followed by further analysis employing the nonparametric fractional inhibitory concentration index (FICI), which is defined by the following equation:
(§3) [formula] where MIC-A and MIC-B are the MICs of drugs A and B, respectively.
(§4) Each drug was initially diluted in either sterile, distilled water or in DMSO, depending on whether the drug was water-soluble or water-insoluble, respectively.
(§5) Stock solution of SCY-078 was prepared in DMSO at 200 times the concentration desired for use in the drug plates. Serial dilutions of stock solution were conducted in DMSO to obtain eleven 2-fold dilutions of the drug. The SCY-078 solution was then diluted to 4 times the desired concentration in RPMI-1640 medium so that the DMSO would not limit growth of the organism and so that the quantity of DMSO was the same for every dilution.
(§6) Two 96-well plates are needed to conduct a combination test. Using a multichannel pipette, 50 μl of the lowest concentration of the first drug (Drug A) was added to each well of column 1 of the first plate (plate A) and column 1 of the second plate (plate B; rows A-D). Then, 50 μl of the next highest working dilution of Drug A was added to each well in column 2, continuing with dilutions until all columns 1-11 were filled. Column 12 was left empty. 50 μl of the lowest concentration of Drug B was added to each well in Row D of plate B. 50 μl of the next highest working dilution of Drug B was added to each well in row C of plate B, continuing with dilutions until all rows through row B of plate A were filled.
(§7) Following the above, 100 μl of organism inoculum was added to every well. The plates were then incubated for 48 hours and visually read after incubation.
(§8) The objective of the study was to determine whether the combination of SCY-078 with voriconazole, isavuconazole, or amphotericin B would result in a combined in vitro antifungal activity exceeding the sum of the activities of each drug alone. Combination MIC testing was performed using the checkerboard assay described above.
(§9) Initial MIC determinations of the individual antifungals were performed according to the Clinical and Laboratory Standards Institute (CLSI) M38-A2 standard for the susceptibility testing of filamentous fungi.
(§10) Combination MIC testing was performed using a checkerboard test method according to the Center for Medical Mycology SOP A11.3. The checkerboard combination test method is a modification of the microdilution antifungal susceptibility test wherein two test compounds are combined in varying concentrations to determine whether they have synergistic, antagonistic, or no effect on the respective MIC values.
(§11) Antifungals were serially diluted two-fold in RPMI medium to produce eleven concentrations each and were combined in wells of a microtiter plate. Two rows consisting of serial dilutions of each individual drug were included. All combination testing was conducted in duplicate. […]

A. fumigatus MRL #28378 = settings: A. fumigatus MRL 28378 (wild-type), read at 48 hours, duplicate
Excerpt: as §1, §2, §3, §4, §5, §6, §7, §8, §9, §10, §11

A. fumigatus MRL #28382 = settings: A. fumigatus MRL 28382 (wild-type), read at 48 hours, duplicate
Excerpt: as §1, §2, §3, §4, §5, §6, §7, §8, §9, §10, §11

A. fumigatus MRL #28383 = settings: A. fumigatus MRL 28383 (azole-resistant), read at 48 hours, duplicate
Excerpt: as §1, §2, §3, §4, §5, §6, §7, §8, §9, §10, §11

A. fumigatus MRL #28401 = settings: A. fumigatus MRL 28401 (wild-type), read at 48 hours, duplicate
Excerpt: as §1, §2, §3, §4, §5, §6, §7, §8, §9, §10, §11

A. fumigatus MRL #28500 = settings: read at 48 hours, duplicate
Excerpt: as §1, §2, §3, §4, §5, §6, §7, §8
A. fumigatus 28500 has a CYP51 mutation at F46Y.
as §9, §10
Antifungals were serially diluted two-fold in RPMI medium to produce eleven concentrations each and were combined in wells of a microtiter plate. Two rows consisting of serial dilutions of each individual drug were included. […]

[1] = SCY-078 combined with amphotericin B
[2] = drug alone, SCY-078/amphotericin B test
[3] = SCY-078 combined with voriconazole
[4] = Aspergillus fumigatus, SCY078, 48 h, drug alone, SCY-078/voriconazole test, read-out: MIC Alone

C[C@@H]1[C@H](O)[C@@H](C)/C=C/C=C/C=C/C=C/C=C/C=C/C=C/[C@H](O[C@@H]2O[C@H](C)[C@@H](O)[C@H](N)[C@@H]2O)C[C@@H]2O[C@](O)(C[C@@H](O)C[C@@H](O)[C@H](O)CC[C@@H](O)C[C@@H](O)CC(=O)O[C@H]1C)C[C@H](O)[C@H]2C(=O)O [Amphotericin B, amphotericin B]
MIC in Combination (A. fumigatus MRL #20438; [1]): 0.5 µg/mL
MIC Alone (A. fumigatus MRL #20438; [2]): 4 µg/mL
MIC in Combination (A. fumigatus MRL #28378; [1]): 0.5 µg/mL
MIC Alone (A. fumigatus MRL #28378; [2]): 2 µg/mL
MIC in Combination (A. fumigatus MRL #28382; [1]): 1 µg/mL and 0.5 µg/mL
MIC Alone (A. fumigatus MRL #28382; [2]): 4 µg/mL
MIC in Combination (A. fumigatus MRL #28383; [1]): 4 µg/mL and 2 µg/mL
MIC Alone (A. fumigatus MRL #28383; [2]): 4 µg/mL and 2 µg/mL
MIC in Combination (A. fumigatus MRL #28401; [1]): 1 µg/mL and 0.5 µg/mL
MIC Alone (A. fumigatus MRL #28401; [2]): 4 µg/mL
MIC in Combination (A. fumigatus MRL #28500; A. fumigatus MRL 28500 (azole-resistant, CYP51 F46Y), SCY-078 combined with amphotericin B): 1 µg/mL
MIC Alone (A. fumigatus MRL #28500; A. fumigatus MRL 28500 (azole-resistant, CYP51 F46Y), drug alone, SCY-078/amphotericin B test): 4 µg/mL

C[C@@H](c1ncncc1F)[C@](O)(Cn1cncn1)c1ccc(F)cc1F [Voriconazole, voriconazole]
MIC in Combination (A. fumigatus MRL #20438; [3]): 0.25 µg/mL
MIC (A. fumigatus MRL #20438; [4]): 1 µg/mL
MIC Alone (A. fumigatus MRL #28378; drug alone, SCY-078/voriconazole test): 0.25 µg/mL
MIC (A. fumigatus MRL #28378; [4]): 0.5 µg/mL
MIC in Combination (A. fumigatus MRL #28382; [3]): 0.125 µg/mL and 0.25 µg/mL
MIC (A. fumigatus MRL #28382; [4]): 0.5 µg/mL
MIC in Combination (A. fumigatus MRL #28383; [3]): >16 µg/mL
MIC (A. fumigatus MRL #28383; [4]): > 16 µg/mL
MIC in Combination (A. fumigatus MRL #28401; [3]): 0.5 µg/mL
MIC (A. fumigatus MRL #28401; [4]): 2 µg/mL
MIC in Combination (A. fumigatus MRL #28500; A. fumigatus MRL 28500 (azole-resistant, CYP51 F46Y), SCY-078 combined with voriconazole): >16 µg/mL
MIC (A. fumigatus MRL #28500; Aspergillus fumigatus, SCY078, 48 h, read-out: MIC Alone, A. fumigatus MRL 28500 (azole-resistant, CYP51 F46Y), drug alone, SCY-078/voriconazole test): > 16 µg/mL
